The values that follow are results of earlier work, collected in PMC3066409 (Diabetic Medicine, 2010).

For the series the following is noted: prescribing information.

Molecules are shown by their SMILES. Structures can show the parent of a compound that is named as a salt.

For `CCN(CC)CCNC(=O)c1cc(Cl)c(N)cc1OC` [metoclopramide], the Drowsiness result was “reported adverse effect”.

Consider `Cc1nccn1CC1CCc2c(c3ccccc3n2C)C1=O` (centres unmarked) [ondansetron, ondansetron hydrochloride], for which the Drowsiness result is recorded as “reported adverse effect”.
